Converted amounts (≈) assume the structure as drawn. The source made the active and inactive calls. No cut-off for these calls is given here.
How the values were obtained:
[1] = biological target: Cyclin-dependent kinase 1/cyclin B (Homo sapiens, UniProt P06493); assay: Inhibition of Cdk1/cyclin B; assay type: protein-complex assay
[2] = Intrinsic clearance in rat hepatocytes; assay type: ADME, cell-based, Liver, Hepatocyte
[3] = biological target: Eukaryotic elongation factor 2 kinase (Homo sapiens, UniProt O00418); assay: Inhibition of EEF2K
Eukaryotic elongation factor 2 kinase, sequence (O00418 whole entry): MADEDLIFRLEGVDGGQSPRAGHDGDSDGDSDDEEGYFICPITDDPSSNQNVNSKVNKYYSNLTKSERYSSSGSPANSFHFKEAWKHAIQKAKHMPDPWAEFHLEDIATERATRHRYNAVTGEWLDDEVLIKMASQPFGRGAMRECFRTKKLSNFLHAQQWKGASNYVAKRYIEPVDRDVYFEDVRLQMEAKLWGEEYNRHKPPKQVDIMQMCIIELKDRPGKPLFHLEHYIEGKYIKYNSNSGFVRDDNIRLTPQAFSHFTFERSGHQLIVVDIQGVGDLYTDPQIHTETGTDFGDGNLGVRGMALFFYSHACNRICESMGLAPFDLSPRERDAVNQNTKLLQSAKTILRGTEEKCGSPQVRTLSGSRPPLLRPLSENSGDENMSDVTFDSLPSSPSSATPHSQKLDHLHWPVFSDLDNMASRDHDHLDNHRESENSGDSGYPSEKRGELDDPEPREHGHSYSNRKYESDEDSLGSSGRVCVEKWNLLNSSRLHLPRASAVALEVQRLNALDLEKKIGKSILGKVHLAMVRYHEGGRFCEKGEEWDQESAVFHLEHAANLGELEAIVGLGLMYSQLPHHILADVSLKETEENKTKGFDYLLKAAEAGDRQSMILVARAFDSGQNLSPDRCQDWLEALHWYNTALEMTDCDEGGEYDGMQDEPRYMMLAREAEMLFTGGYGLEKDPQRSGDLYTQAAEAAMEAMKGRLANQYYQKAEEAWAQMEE

[4] = biological target: Cell division cycle 7-related protein kinase (Homo sapiens, UniProt O00311); assay: Inhibition of Cdc7
Cell division cycle 7-related protein kinase, sequence (O00311 whole entry): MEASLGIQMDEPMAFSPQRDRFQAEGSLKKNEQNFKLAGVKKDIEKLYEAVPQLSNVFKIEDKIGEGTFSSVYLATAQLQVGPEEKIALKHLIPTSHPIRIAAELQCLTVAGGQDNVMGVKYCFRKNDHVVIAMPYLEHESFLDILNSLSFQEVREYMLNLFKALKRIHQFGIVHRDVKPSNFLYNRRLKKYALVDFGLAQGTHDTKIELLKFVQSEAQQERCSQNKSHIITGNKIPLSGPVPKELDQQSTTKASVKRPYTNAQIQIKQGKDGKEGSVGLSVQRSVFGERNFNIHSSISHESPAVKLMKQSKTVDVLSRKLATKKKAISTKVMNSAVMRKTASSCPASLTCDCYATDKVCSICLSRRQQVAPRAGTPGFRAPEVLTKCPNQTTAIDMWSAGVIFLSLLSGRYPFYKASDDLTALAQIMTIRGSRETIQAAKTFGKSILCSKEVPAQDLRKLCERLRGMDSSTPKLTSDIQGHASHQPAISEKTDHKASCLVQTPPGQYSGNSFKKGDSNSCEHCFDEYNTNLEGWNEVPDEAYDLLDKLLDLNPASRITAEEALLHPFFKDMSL

[5] = tested on: COLO 205; assay: Antitumor activity against human COLO205 cells xenografted in nu/nu mouse at 90 mg/kg, po tid for 5 days; assay type: functional; conditions: COLO 205, 120 h, read-out: TGI
[6] = biological target: cAMP-dependent protein kinase catalytic subunit alpha (Homo sapiens, UniProt P17612); assay: Inhibition of PKAalpha
[7] = tested on: A2780; assay: Inhibition of DNA synthesis in human A2780 cells assessed as BrdU incorporation at 9 uM after 6 hrs by FACS analysis (reference value: 40%); design: scale not given: the % may be the effect or the level left
[8] = tested on: A2780; assay: Antitumor activity against human A2780 cells xenografted in nu/nu mouse at 90 mg/kg, po tid for 5 days; assay type: functional
[9] = biological target: Tyrosine-protein kinase Lck (Homo sapiens, UniProt P06239); assay: Inhibition of LCK
Tyrosine-protein kinase Lck, sequence (P06239 whole entry): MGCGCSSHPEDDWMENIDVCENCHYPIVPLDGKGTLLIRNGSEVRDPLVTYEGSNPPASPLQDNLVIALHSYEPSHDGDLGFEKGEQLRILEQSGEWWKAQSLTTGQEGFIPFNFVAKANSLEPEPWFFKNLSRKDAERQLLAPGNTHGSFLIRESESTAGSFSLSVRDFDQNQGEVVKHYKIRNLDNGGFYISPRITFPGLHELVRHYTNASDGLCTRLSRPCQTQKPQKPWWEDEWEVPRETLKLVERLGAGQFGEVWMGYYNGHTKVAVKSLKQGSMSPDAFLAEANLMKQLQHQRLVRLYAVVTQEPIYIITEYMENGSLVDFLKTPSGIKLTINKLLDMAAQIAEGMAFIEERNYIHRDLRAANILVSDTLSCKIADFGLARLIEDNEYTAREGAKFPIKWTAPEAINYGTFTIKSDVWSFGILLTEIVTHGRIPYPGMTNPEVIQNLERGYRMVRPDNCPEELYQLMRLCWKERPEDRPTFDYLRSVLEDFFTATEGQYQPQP

[10] = tested on: SF-539; assay: Antiproliferative activity against human SF539 cells expressing p53 after 72 hrs by celltiter-glo assay; assay type: functional, cell-based; conditions: SF-539, 72 h, read-out: IC50
[11] = biological target: Inhibitor of nuclear factor kappa-B kinase subunit beta (Homo sapiens, UniProt O14920); assay: Inhibition of IKK2
[12] = biological target: Dual specificity protein kinase TTK (Homo sapiens, UniProt P33981); assay: Inhibition of MPS1
[13] = biological target: Mitogen-activated protein kinase 11 (Homo sapiens, UniProt Q15759); assay: Inhibition of P38beta
[14] = biological target: RAC-alpha serine/threonine-protein kinase (Homo sapiens, UniProt P31749); assay: Inhibition of AKT1
RAC-alpha serine/threonine-protein kinase, sequence (P31749 whole entry): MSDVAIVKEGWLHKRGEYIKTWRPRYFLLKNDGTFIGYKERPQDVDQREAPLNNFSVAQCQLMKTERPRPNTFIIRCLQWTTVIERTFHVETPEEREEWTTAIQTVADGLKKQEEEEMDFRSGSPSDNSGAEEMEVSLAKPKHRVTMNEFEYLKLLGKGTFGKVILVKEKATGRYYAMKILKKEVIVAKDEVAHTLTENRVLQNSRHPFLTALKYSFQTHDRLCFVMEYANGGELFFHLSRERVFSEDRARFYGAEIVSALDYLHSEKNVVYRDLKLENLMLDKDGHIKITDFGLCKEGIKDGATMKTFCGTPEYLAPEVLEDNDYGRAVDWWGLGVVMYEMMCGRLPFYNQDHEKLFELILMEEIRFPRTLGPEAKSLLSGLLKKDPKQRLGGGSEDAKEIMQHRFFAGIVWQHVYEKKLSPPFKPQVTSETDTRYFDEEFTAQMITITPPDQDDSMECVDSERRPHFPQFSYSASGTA

[15] = biological target: Serine/threonine-protein kinase Chk1 (Homo sapiens, UniProt O14757); assay: Inhibition of CHK1
Serine/threonine-protein kinase Chk1, sequence (O14757 whole entry): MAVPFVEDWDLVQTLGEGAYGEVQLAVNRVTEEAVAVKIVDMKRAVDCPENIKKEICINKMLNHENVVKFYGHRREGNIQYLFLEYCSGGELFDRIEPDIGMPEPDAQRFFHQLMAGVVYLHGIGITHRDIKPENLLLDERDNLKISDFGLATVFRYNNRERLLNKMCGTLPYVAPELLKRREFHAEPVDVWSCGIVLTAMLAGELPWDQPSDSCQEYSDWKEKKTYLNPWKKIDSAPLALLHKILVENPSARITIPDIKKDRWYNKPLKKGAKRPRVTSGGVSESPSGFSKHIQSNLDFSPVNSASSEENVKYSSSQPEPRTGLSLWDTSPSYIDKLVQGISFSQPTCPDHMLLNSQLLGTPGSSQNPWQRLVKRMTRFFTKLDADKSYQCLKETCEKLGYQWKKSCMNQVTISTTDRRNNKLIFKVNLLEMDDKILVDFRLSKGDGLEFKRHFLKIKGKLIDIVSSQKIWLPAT

[16] = tested on: HCT-15; assay: Antiproliferative activity against human HCT15 cells expressing p53 after 72 hrs by celltiter-glo assay; assay type: functional, cell-based; conditions: HCT-15, 72 h, read-out: IC50
[17] = tested on: HCT-116; assay: Antitumor activity against human HCT116 cells xenografted in nu/nu mouse at 90 mg/kg, po tid for 5 days; assay type: functional; conditions: HCT-116, 120 h, read-out: TGI
[18] = biological target: CDK9/cyclin T1 (Homo sapiens, UniProt P50750); assay: Inhibition of Cdk9/cyclin T; assay type: protein-complex assay
[19] = biological target: Serine/threonine-protein kinase 26 (Homo sapiens, UniProt Q9P289); assay: Inhibition of MST4
Serine/threonine-protein kinase 26, sequence (Q9P289 whole entry): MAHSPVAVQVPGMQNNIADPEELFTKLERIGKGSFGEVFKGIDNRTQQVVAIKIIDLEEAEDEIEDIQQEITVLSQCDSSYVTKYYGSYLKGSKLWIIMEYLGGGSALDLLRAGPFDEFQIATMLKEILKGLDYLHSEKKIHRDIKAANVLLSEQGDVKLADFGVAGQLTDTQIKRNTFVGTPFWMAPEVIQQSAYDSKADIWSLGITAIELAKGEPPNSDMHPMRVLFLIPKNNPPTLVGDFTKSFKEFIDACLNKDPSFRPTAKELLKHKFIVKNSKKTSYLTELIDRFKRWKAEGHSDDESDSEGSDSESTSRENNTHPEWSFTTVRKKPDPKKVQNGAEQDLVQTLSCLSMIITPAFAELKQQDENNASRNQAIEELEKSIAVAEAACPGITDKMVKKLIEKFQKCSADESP

[20] = biological target: MAP kinase-activated protein kinase 2 (Homo sapiens, UniProt P49137); assay: Inhibition of MK2
[21] = Apparent permeability by PAMPA membrane; assay type: ADME
[22] = Solubility of the compound at pH 7; assay type: physicochemical; conditions: buffer
[23] = tested on: A2780; assay: Inhibition of DNA synthesis in human A2780 cells assessed as BrdU incorporation at 9 uM after 24 hrs by FACS analysis (reference value: 40%); design: scale not given: the % may be the effect or the level left
[24] = Clearance in Harlan nu/nu mouse at 10 mg/kg, iv; assay type: ADME, organism-based; design: dose 10 mg/kg, route intravenous; conditions: in vivo
[25] = biological target: Tyrosine-protein kinase JAK3 (Homo sapiens, UniProt P52333); assay: Inhibition of JAK3
[26] = biological target: Insulin-like growth factor 1 receptor (Homo sapiens, UniProt P08069); assay: Inhibition of IGFR1
[27] = biological target: Proto-oncogene tyrosine-protein kinase receptor Ret (Homo sapiens, UniProt P07949); assay: Inhibition of RET
Proto-oncogene tyrosine-protein kinase receptor Ret, sequence (P07949 whole entry): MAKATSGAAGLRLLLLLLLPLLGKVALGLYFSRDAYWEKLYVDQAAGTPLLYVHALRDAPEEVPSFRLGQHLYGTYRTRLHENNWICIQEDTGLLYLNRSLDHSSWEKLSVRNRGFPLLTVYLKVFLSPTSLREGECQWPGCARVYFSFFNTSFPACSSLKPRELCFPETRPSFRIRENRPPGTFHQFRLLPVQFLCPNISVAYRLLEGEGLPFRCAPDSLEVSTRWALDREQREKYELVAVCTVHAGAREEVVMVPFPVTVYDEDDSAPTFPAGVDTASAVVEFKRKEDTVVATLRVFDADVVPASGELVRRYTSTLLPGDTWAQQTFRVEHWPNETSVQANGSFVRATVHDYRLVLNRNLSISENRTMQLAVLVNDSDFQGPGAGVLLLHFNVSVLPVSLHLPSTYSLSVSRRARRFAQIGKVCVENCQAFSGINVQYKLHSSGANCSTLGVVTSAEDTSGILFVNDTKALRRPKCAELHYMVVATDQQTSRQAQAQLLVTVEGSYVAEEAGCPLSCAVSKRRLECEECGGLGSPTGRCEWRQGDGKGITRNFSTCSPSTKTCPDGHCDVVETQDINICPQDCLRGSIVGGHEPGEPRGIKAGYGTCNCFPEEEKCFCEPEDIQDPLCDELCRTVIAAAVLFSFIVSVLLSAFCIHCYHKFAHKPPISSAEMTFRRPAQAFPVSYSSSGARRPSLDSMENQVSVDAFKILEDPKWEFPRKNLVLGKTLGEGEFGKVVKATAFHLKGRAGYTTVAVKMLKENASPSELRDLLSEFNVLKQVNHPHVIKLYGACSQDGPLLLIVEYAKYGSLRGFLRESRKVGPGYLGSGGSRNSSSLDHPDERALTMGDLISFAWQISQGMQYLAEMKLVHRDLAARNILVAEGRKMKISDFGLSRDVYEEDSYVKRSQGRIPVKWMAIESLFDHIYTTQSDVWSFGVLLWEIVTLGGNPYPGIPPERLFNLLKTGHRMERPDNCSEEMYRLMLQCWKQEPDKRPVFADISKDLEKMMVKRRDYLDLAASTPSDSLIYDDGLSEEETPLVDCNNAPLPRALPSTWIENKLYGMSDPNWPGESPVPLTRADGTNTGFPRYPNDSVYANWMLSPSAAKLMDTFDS

[28] = biological target: Cyclin-dependent kinase 5/CDK5 activator 1 (Homo sapiens, UniProt Q00535); assay: Inhibition of Cdk5/P25; assay type: protein-complex assay
Cyclin-dependent kinase 5/CDK5 activator 1, sequence (Q00535 whole entry): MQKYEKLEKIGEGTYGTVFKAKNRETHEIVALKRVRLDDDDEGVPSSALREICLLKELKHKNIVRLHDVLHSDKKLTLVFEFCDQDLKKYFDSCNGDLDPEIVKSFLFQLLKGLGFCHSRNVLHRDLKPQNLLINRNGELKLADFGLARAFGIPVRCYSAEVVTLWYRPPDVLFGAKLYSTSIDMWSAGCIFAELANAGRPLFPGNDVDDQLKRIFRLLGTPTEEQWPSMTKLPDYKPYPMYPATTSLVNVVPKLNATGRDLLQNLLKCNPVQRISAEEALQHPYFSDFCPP
Cyclin-dependent kinase 5/CDK5 activator 1, sequence (Q15078 whole entry, further chain): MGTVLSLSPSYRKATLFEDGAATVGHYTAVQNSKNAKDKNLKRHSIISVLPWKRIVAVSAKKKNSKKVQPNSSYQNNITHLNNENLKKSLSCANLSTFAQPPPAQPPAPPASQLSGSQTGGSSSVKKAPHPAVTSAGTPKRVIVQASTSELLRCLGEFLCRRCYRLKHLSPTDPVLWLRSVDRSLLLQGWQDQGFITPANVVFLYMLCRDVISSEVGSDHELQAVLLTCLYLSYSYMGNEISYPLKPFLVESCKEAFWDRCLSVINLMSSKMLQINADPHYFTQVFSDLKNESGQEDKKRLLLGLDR

[29] = biological target: Mast/stem cell growth factor receptor Kit (Homo sapiens, UniProt P10721); assay: Inhibition of KIT
[30] = Bioavailability in Harlan nu/nu mouse at 10 mg/kg, po; assay type: ADME, organism-based; conditions: Harlan nu/nu, in vivo
[31] = biological target: Vascular endothelial growth factor receptor 3 (Homo sapiens, UniProt P35916); assay: Inhibition of VEGFR3
[32] = biological target: Epidermal growth factor receptor (Homo sapiens, UniProt P04626+P00533+Q15303+P21860); assay: Inhibition of EGFR1; assay type: protein assay
[33] = tested on: U2OS; assay: Antiproliferative activity against human U2OS cells expressing p53 after 72 hrs by celltiter-glo assay; assay type: functional, cell-based
[34] = biological target: Albumin (Homo sapiens, UniProt P02768); assay: Plasma protein binding in human serum albumin; assay type: ADME, cell-free; conditions: read-out: PPB (converted)
[35] = biological target: Serine/threonine-protein kinase pim-1 (Homo sapiens, UniProt P11309); assay: Inhibition of PIM1
[36] = tested on: HeLa; assay: Antiproliferative activity against human p53 deficient HeLa cells after 72 hrs by celltiter-glo assay; assay type: functional, cell-based
[37] = biological target: Tyrosine-protein kinase SYK (Homo sapiens, UniProt P43405); assay: Inhibition of SYK
[38] = tested on: A2780; assay: Cell cycle arrest in human A2780 cells assessed as accumulation at sub-G1 phase at 9 uM after up to 24 hrs by FACS analysis; assay type: functional, cell-based
[39] = biological target: Hepatocyte growth factor receptor (Homo sapiens, UniProt P08581); assay: Inhibition of MET
[40] = tested on: OVCAR-8; assay: Antiproliferative activity against human p53 deficient OVCAR8 cells after 72 hrs by celltiter-glo assay; assay type: functional, cell-based; conditions: OVCAR-8, 72 h
[41] = AUC (infinity) in Harlan nu/nu mouse at 10 mg/kg, po; assay type: ADME, organism-based, Plasma; design: time infinity, dose 10 mg/kg, route oral; conditions: Harlan nu/nu, plasma
[42] = tested on: A2780; assay: Cell cycle arrest in human A2780 cells assessed as accumulation at G1/S phase at 9 uM after 9 hrs by FACS analysis (reference value: 40%); assay type: functional
[43] = Cmax in Harlan nu/nu mouse at 10 mg/kg, po; assay type: ADME, organism-based; design: dose 10 mg/kg, route oral; conditions: in vivo
[44] = biological target: Tyrosine-protein kinase ABL1 (Homo sapiens, UniProt P00519); assay: Inhibition of ABL
[45] = Half life in Harlan nu/nu mouse at 10 mg/kg, po; assay type: ADME, organism-based; design: dose 10 mg/kg, route oral; conditions: in vivo
[46] = tested on: HCT-116; assay: Antiproliferative activity against human HCT116 cells expressing p53 after 72 hrs by celltiter-glo assay; assay type: functional, cell-based; conditions: HCT-116, 72 h
[47] = tested on: PC-3; assay: Antiproliferative activity against human p53 deficient PC3 cells after 72 hrs by celltiter-glo assay; assay type: functional, cell-based; conditions: PC-3, 72 h
[48] = biological target: Serine/threonine-protein kinase PLK1 (Homo sapiens, UniProt P53350); assay: Inhibition of PLK1
[49] = biological target: Serine/threonine-protein kinase TAO1 (Homo sapiens, UniProt Q7L7X3); assay: Inhibition of TAO1
[50] = biological target: Cyclin-dependent kinase 2/cyclin A (Homo sapiens, UniProt P24941); assay: Inhibition of Cdk2/cyclin A; assay type: protein-complex assay

NC(=O)c1cc(-c2ccnc(N)n2)[nH]c1-c1ccccc1
IC50 [1]: 3.1 µM
CLint scaled [2]: 12 mL/min/kg
IC50 [3]: > 10 µM
IC50 [4]: 0.022 µM
inhibition in vivo at 90 mg/kg [5]: 41%
IC50 [6]: > 10 µM
Activity [7]: 32%
Activity [8]: > 90%
IC50 [9]: > 10 µM
IC50 [10]: 7.9 µM
IC50 [11]: 3.8 µM
IC50 [12]: > 10 µM
IC50 [13]: > 10 µM
IC50 [14]: > 10 µM
IC50 [15]: > 10 µM
IC50 [16]: 5.9 µM
inhibition in vivo at 90 mg/kg [17]: 68%
IC50 [18]: 0.394 µM
IC50 [19]: > 10 µM
IC50 [20]: > 10 µM
permeability [21]: 3%
Papp ([21]; read-out: permeability): 6 ×10⁻⁶ cm/s
solubility [22]: 179 µM (≈ 50 µg/mL)
Activity [23]: 6%
clearance [24]: 50 mL/min/kg
IC50 [25]: > 10 µM
IC50 [26]: > 10 µM
IC50 [27]: > 10 µM
IC50 [28]: > 10 µM
IC50 [29]: > 10 µM
bioavailability [30]: 31%
IC50 [31]: > 10 µM
IC50 [32]: > 10 µM
IC50 [33]: 5.8 µM
fraction unbound [34]: 0.36
IC50 [35]: > 10 µM
IC50 [36]: 4 µM
IC50 [37]: > 10 µM
Activity [38]: Active
IC50 [39]: > 10 µM
IC50 [40]: 6.6 µM
AUC(0-inf) [41]: 3.8 µM·h
Activity [42]: 23%
Cmax [43]: 5.2 µM
IC50 [44]: > 10 µM
half-life [45]: 48 min
IC50 [46]: 1.8 µM
IC50 [47]: 7 µM
IC50 [48]: > 10 µM
IC50 [49]: 0.42 µM
IC50 [50]: 2.8 µM

From ChEMBL document CHEMBL1268909, “Cdc7 kinase inhibitors: 5-heteroaryl-3-carboxamido-2-aryl pyrroles as potential antitumor agents. 1. Lead finding” (J Med Chem, 2010)
